From EP1633390B1, “STABILIZED PHARMACEUTICAL GLP-1 PEPTIDE COMPOSITIONS” (NOVO NORDISK A/S, priority 2003, dated 2012)

Experiment: Thioflavin T-test (ThT-test) of physical stability / fibril formation of the formulations
Format: physicochemical
Experimental: Physical stability of the formulations is evaluated by means of the Thioflavin T-test. The physical stability of the different formulations is characterized by their tendency to form fibrils. A method to determine the presence of fibrils is the Thioflavin T-test. The histological thiazole dye Thioflavin T (ThT) is used as an indicator of amyloid fibril formation. The method is based on the fluorescent characteristics of ThT. […] The physical stability of the formulations is evaluated by the ThT-test after storage of the formulation is top filled glass cartridges for various time periods.

physical stability (change in ThT) (Compound 1 adjusted to pH 8.0 before freeze drying, after 1 week and 1 months storage at 37°C): an increase in ThT is seen
physical stability (change in ThT) (Compound 1 adjusted to pH 9.5 and 11.5 before freeze drying, after 1 week and 1 months storage at 37°C): no increase in ThT is seen
physical stability (change in ThT) (formulation manufactured by raising pH above neutral pH (> 8) in the solution containing the drug substance, after 1 month at 37°C): no increase in ThT is seen
Compound: CCCCCCCCCCCCCCCC(=O)N[C@@H](CCC(=O)NCCCC[C@H](NC(=O)[C@H](C)NC(=O)[C@H](C)NC(=O)[C@H](CCC(N)=O)NC(=O)CNC(=O)[C@H](CCC(=O)O)NC(=O)[C@H](CC(C)C)NC(=O)[C@H](Cc1ccc(O)cc1)NC(=O)[C@H](CO)NC(=O)[C@H](CO)NC(=O)[C@@H](NC(=O)[C@H](CC(=O)O)NC(=O)[C@H](CO)NC(=O)[C@@H](NC(=O)[C@H](Cc1ccccc1)NC(=O)[C@@H](NC(=O)CNC(=O)[C@H](CCC(=O)O)NC(=O)[C@H](C)NC(=O)[C@@H](N)Cc1cnc[nH]1)[C@@H](C)O)[C@@H](C)O)C(C)C)C(=O)N[C@@H](CCC(=O)O)C(=O)N[C@@H](Cc1ccccc1)C(=O)N[C@H](C(=O)N[C@@H](C)C(=O)N[C@@H](Cc1c[nH]c2ccccc12)C(=O)N[C@@H](CC(C)C)C(=O)N[C@H](C(=O)N[C@@H](CCCNC(=N)N)C(=O)NCC(=O)N[C@@H](CCCNC(=N)N)C(=O)NCC(=O)O)C(C)C)[C@@H](C)CC)C(=O)O [Compound 1, Arg^34, Lys^26 (N^∈-(γ-Glu(N^α-hexadecanoyl)))-GLP-1 (7-37)]
